Tests used:
plasmin = biological target: T1, plasmin (Homo sapiens, UniProt P00747); experiment: Plasmin activity assay (Plasmin Inhibitor Screening Assay Kit); type: biochemical
T1 construct: purchased abcam
Protocol: The potential activity of the studied compounds on the catalytic domain of plasmin was evaluated using the Plasmin Inhibitor Screening Assay Kit (abcam), following the manufacturer’s instructions. Briefly, the assay measures the inhibition of plasmin’s activity by the tested compounds through the cleavage of a fluorogenic peptide substrate. The assay was performed in flat-bottom 96-well plates. Plasmin was pre-incubated with different concentrations of the tested compounds for 10 min at RT prior to the addition of the peptide substrate. Plasmin’s activity was then measured by monitoring the increase in fluorescence intensity over time using a microplate reader (Infinite M Plex, Tecan, Männedorf, Switzerland) at an Ex/Em of 360/450 nm, every minute at 37 °C for 10 min. The slope of each sample was determined using the initial and final fluorescence values and their respective time points. (1) Fluorescence slope=RFU2−RFU1/t2−t1
The Relative Plasmin Inhibition was calculated according to the manufacturer’s instructions using a control slope with no compound (enzyme control):(2) Relative Plasmin Inhibition%=SlopeControl−SlopeCompound/SlopeControl×100

[1] = Pharmacokinetic study in Wistar rats; type: in vivo; conditions: for Mortality: PK2 2.5 mg/kg iv, 9 rats; for AUC / Cmax / Tmax / Vd / clearance / half-life: iv
Protocol: A pharmacokinetic study was performed for compound 5 in Wistar rats and Beagle dogs. For rats, a total of 35 male and 35 female rats were used for the study. At initiation of the dosing, rats were 9 to 10 weeks old and the body weight variation among rats was within ±20% of the mean body weight for each sex. […] Food and filtered water were provided ad libitum. During randomization, 30 male and 30 female rats were selected for the study and randomly allocated to the 4 different groups. The remaining 5 male and 5 female rats were returned to the animal facility. Rats were observed twice daily for morbidity, mortality, and clinical signs during the whole study period. Rats were euthanized after last blood collection time point by carbon dioxide asphyxiation. Sterile water served as a vehicle to dissolve compound 5 and the resulting formulations were administered right after preparation. Dose formulations were administered to rats via an intravenous bolus injection through the tail vein, using a sterile needle attached to a graduated syringe. A fixed volume of 5 mL/kg body weight was administered. Individual doses were adjusted based on the most recent recorded body weight of each rat. Four dose levels were selected: vehicle control (PK1), 2.5 mg/kg (PK2), 5 mg/kg (PK3), and 10 mg/kg (PK4).
Pharmacokinetic assessment of compound 5 was conducted on the day of dosing at multiple time points: 0 h (pre-dose), 5 min, 15 min, 0.5 h, 1 h, 2 h, 4 h, 6 h, 10 h, and 24 h post-dosing for PK2, PK3, and PK4 rats. At each time point, samples were only obtained from a subset of 3 rats. For the PK1 group, samples were collected at 0 h and at 24 h post-dosing. Blood samples (400 µL) were collected into heparin sodium tubes from the retro-orbital plexus under very light isoflurane anesthesia. Samples were inverted 4 to 5 times and placed on ice and then centrifuged at 3500 rpm for 15 min at 8 °C for plasma extraction. Plasma was transferred to Eppendorf tubes and stored at −70 ± 10 °C until assayed. The concentration of compound 5 was analyzed in plasma using High-Performance Liquid Chromatography. […] The mobile phase consisted of acetonitrile (A) and 2 mM ammonium Formate in Mili-Q water (B) with an isocratic elution mode. Pharmacokinetic analysis of the concentration of compound 5 in plasma was performed using the non-compartmental model of the WinNonlin® software version 8.1 at JRF. The group mean values of plasma concentration were analyzed to obtain different pharmacokinetics parameters, including Cmax (maximum peak concentration), Tmax (time of maximum peak concentration), AUC (area under the concentration–time curve, Cl (clearance), Vd (volume of distribution), Kel (elimination rate constant), and T1/2 (terminal half-life).

[2] = female, Wistar, rat, in vivo, 2.5 mg/kg
[3] = female, Wistar, rat, in vivo, 5 mg/kg
[4] = female, Wistar, rat, in vivo, 10 mg/kg
[5] = male, Wistar, rat, in vivo, 2.5 mg/kg
[6] = male, Wistar, rat, in vivo, 5 mg/kg
[7] = male, Wistar, rat, in vivo, 10 mg/kg

T1 sequence (P00747 97-580 limits assumed): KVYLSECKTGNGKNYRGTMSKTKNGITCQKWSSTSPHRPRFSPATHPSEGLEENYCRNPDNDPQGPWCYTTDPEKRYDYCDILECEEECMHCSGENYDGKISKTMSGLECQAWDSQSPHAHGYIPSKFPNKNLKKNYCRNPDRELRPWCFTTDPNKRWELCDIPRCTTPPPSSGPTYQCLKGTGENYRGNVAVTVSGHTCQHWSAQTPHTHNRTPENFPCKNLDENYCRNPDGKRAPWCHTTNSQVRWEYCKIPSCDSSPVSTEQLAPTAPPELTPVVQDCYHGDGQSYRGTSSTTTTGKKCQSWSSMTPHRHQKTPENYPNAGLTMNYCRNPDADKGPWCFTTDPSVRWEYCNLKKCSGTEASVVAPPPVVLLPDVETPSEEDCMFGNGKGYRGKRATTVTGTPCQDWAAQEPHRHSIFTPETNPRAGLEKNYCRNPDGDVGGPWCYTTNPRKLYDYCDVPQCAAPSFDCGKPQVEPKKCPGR
T1 sequence (P00747 581-810 limits assumed): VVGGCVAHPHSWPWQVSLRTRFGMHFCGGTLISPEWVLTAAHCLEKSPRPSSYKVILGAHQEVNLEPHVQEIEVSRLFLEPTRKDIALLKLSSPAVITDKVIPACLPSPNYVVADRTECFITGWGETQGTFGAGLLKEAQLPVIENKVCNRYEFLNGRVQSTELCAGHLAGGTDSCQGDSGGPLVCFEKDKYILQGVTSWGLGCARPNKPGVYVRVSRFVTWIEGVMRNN

Compound: O=c1[nH]nc(-c2cn(C3CCNCC3)nn2)o1 [compound 5]
- inhibition at 5000 µM (plasmin; 5 mM, read-out: percentage of plasmin's inhibition): 6.29%
- inhibition at 10000 µM (plasmin; 10 mM, read-out: percentage of plasmin's inhibition): 23.9%
- inhibition at 15000 µM (plasmin; 15 mM, read-out: percentage of plasmin's inhibition): 31.3%
- inhibition at 20000 µM (plasmin; 20 mM, read-out: percentage of plasmin's inhibition): 65.3%
- IC50 (plasmin; inhibition of plasmin's cleavage of a synthetic substrate by 50%): 17.9 ± 1.24 mM
- increase of IC50 of plasmin's catalytic domain compared to IC50 in plasma clot lysis assay (plasmin; plasma clot lysis IC50 from Bosch-Sanz et al. [43]): 1000 fold
- Mortality ([1]; female): 0 number of rats
- Mortality ([1]; male): 0 number of rats
- elimination halftime ([1]; both, Wistar (rat), Beagle (dog), rat, in vivo): 2 to 3 h
- AUC [1, 2]: 3630 ng·h/mL
- Cmax [1, 2]: 8660 ng/mL
- Tmax [1, 2]: 4.8 min
- Vd [1, 2]: 1.91 L/kg
- clearance [1, 2]: 11.5 mL/min/kg
- half-life [1, 2]: 115 min
- AUC [1, 3]: 7040 ng·h/mL
- Tmax [1, 3]: 4.8 min
- Vd [1, 3]: 2.03 L/kg
- clearance [1, 3]: 11.8 mL/min/kg
- half-life [1, 3]: 119 min
- AUC [1, 4]: 13600 ng·h/mL
- Tmax [1, 4]: 4.8 min
- Vd [1, 4]: 2.37 L/kg
- clearance [1, 4]: 12.2 mL/min/kg
- half-life [1, 4]: 134 min
- AUC [1, 5]: 3430 ng·h/mL
- Cmax [1, 5]: 8280 ng/mL
- Tmax [1, 5]: 4.8 min
- Vd [1, 5]: 2.52 L/kg
- clearance [1, 5]: 12.2 mL/min/kg
- half-life [1, 5]: 145 min
- AUC [1, 6]: 6530 ng·h/mL
- Cmax [1, 6]: 15100 ng/mL
- Tmax [1, 6]: 4.8 min
- Vd [1, 6]: 6.01 L/kg
- clearance [1, 6]: 12.7 mL/min/kg
- half-life [1, 6]: 327 min
- AUC [1, 7]: 12200 ng·h/mL
- Cmax [1, 7]: 26300 ng/mL
- Tmax [1, 7]: 4.8 min
- Vd [1, 7]: 6.65 L/kg
- clearance [1, 7]: 13.7 mL/min/kg
- half-life [1, 7]: 337 min
- Cmax ([1]; rat, in vivo, 5 mg/kg): 16,634
- Cmax ([1]; rat, in vivo, 10 mg/kg): 30,839

Source: publication PMC11241262, “Unravelling the Antifibrinolytic Mechanism of Action of the 1,2,3-Triazole Derivatives” (International Journal of Molecular Sciences, 2024)
